Measured values published in patent publication US7229987B2, “Multicyclic compounds for use as melanin concentrating hormone antagonists in the treatment of obesity and diabetes” (Eli Lilly and Company, priority 2002, dated 2007).
Counter-ions that a name gives are not always drawn.

| melting point | Structure (SMILES) |
| --- | --- |
| 116 to 118 °C | CN(C)CCCOc1ccc(-c2nnc(CCOCCOc3ccccc3)o2)cc1 (as salt: oxalate) [Example 215, Dimethyl-[3-(4-{5-[2-(2-phenxoyethoxy)ethyl]-[1,3,4]oxadiazol-2-yl}phenoxy)propyl]amine] |
| 150 to 154 °C | CN(C)CCNC(=O)Nc1ccc(-c2cnc(COCc3cc4ccccc4o3)o2)cc1 [Example 254, 1-{4-[2-(benzofuran-2-ylmethoxymethyl)-oxazol-5-yl]-phenyl}-3-(2-dimethylamino-ethyl)-urea] |
| 101 to 102 °C | CN(C)CCCOc1ccc(-c2nnc(CSCCOc3cccc4ccccc34)o2)cc1 [Example 278, [3-(4-{5-[2-(1-naphthoxy)-ethylsulfanylmethyl]-[1,3,4]oxadiazol-2-yl}-phenoxy)-propyl]-dimethyl-amine] |
| 27 to 31 °C | CCN(CC)CCCOc1ccc(-c2nnc(CSCCOc3ccccc3)o2)cc1 [Example 78, diethyl-(3-{4-[5-(2-phenoxy-ethylsulfanylmethyl)-[1,3,4]oxadiazol-2-yl]-phenoxy}-propyl)-amine] |
| 115 to 116 °C | CN1CCCC(COc2ccc(-c3nnc(CSCCOc4ccccc4)o3)cc2)C1.O=C(O)/C=C\C(=O)O (stereo not shown) [Example 290, 1-methyl-3-{4-[5-(2-phenoxy-ethylsulfanylmethyl)-[1,3,4]oxadiazol-2-yl]-phenoxymethyl}-piperidine; maleic acid salt] |
| 70 °C | c1ccc(OCCSCc2nnc(-c3ccc(OCCCN4CCCC4)cc3)o2)cc1 [Example 88, 2-(2-phenoxy-ethylsulfanylmethyl)-5-[4-(3-pyrrolidin-1-yl-propoxy)-phenyl]-[1,3,4]oxadiazole] |
| 94 to 96 °C | CN(C)CCCNc1ccc(-c2nnc(CSCCOc3ccccc3)o2)cn1 [Example 259, N,N-Dimethyl-N′-{5-[5-(2-phenoxy-ethylsulfanylmethyl)-[1,3,4]oxadiazol-2-yl]-pyridin-2-yl}-propane-1,3-diamine] |
| 71 to 78 °C | CN(C)CCCCNC(=O)c1ccc(-c2nnc(CSCCOc3ccccc3)o2)cc1 [Example 55, N-(4-dimethylaminobutyl)-4-[5-(2-phenoxyethylsulfanylmethyl)-[1,3,4]oxadiazol-2-yl]-benzamide] |
| > 220 °C | NC(=O)Nc1ccc(-c2nnc(CSCCOc3ccccc3)o2)cc1 [Example 101, {4-[5-(2-phenoxy-ethylsulfanylmethyl)-[1,3,4]oxadiazol-2-yl]-phenyl}-urea] |
| 55 to 57 °C | O=C1CCN(CCCOc2ccc(-c3nnc(CSCCOc4ccccc4)o3)cc2)CC1 [Example 260, 1-(3-{4-[5-(2-Phenoxy-ethylsulfanylmethyl)-[1,3,4]oxadiazol-2-yl]-phenoxy}-propyl)-piperidin-4-one] |
| 140 to 141 °C | CN(C)CCCNC(=O)c1ccc(-c2nnc(CSCCOc3ccc(Cl)cc3Cl)o2)cc1 [Example 44, 4-{5-[2-(2,4-dichlorophenoxy)-ethylsulfanylmethyl]-[1,3,4]-oxadiazol-2-yl}-N-(3-dimethylaminopropyl)-benzamide] |
| 47 to 49 °C | CN(C)CCCOc1ccc(-c2nnc(CSCCOc3ccccc3)o2)nc1 [Example 289, dimethyl-(3-{6-[5-(2-phenoxy-ethylsulfanylmethyl)-[1,3,4]oxadiazol-2-yl]-pyridin-3-yloxy}-propyl)-amine] |
| 103 to 104 °C | COc1cc(-c2nnc(CSCCOc3ccccc3)o2)cc(OC)c1OCCCN(C)C.O=C(O)/C=C\C(=O)O [Example 285, (3-{2,6-dimethoxy-4-[5-(2-phenoxy-ethylsulfanylmethyl)-[1,3,4]oxadiazol-2-yl]-phenoxy}-propyl)-dimethyl-amine; maleic acid salt] |
| 88 to 90 °C | CN(C)CCCNC(=O)c1cccc(-c2nnc(CSCCOc3ccccc3)o2)c1 [Example 62, N-(3-dimethylamino-propyl)-3-[5-(2-phenoxy-ethylsulfanylmethyl)-[1,3,4]oxadiazol-2-yl]-benzamide] |
| 102 to 104 °C | O=C(NCCN1CCCCC1)Nc1ccc(-c2cnc(COCc3cc4ccccc4o3)o2)cc1 [Example 256, 1-{4-[2-(benzofuran-2-ylmethoxymethyl)-oxazol-5-yl]-phenyl}-3-(2-piperidin-1-yl-ethyl)-urea] |
| 95 °C | CN(C)CCCOc1ccc(-c2nnc(-c3ccc(Oc4ccccc4)cc3)o2)cc1 [Example 248, Dimethyl-(3-{4-[5-(4-phenoxy-phenyl)-[1,3,4]oxadiazol-2-yl]-phenoxy}-propyl)-amine] |
| 60 to 61 °C | CN1CCCC(Oc2ccc(-c3nnc(CSCCOc4ccccc4)o3)cc2)CC1 (stereo not shown) [Example 97, 1-methyl-4-{4-[5-(2-phenoxy-ethylsulfanylmethyl)-[1,3,4]oxadiazol-2-yl]-phenoxy}-azepane] |
| 126 to 128 °C | O=C(NCCN1CCCCC1)Nc1ccc(-c2nnc(CSCCOc3ccccc3)o2)cc1 [Example 107, 1-{4-[5-(2-phenoxy-ethylsulfanylmethyl)-[1,3,4]oxadiazol-2-yl]-3-phenyl}-3-(2-piperidin-1-yl-ethyl)-urea] |

| melting point | Structure (SMILES) |
| --- | --- |
| 70 °C | CN(C)CCCOc1ccc(-c2nnc(CSCCOc3ccccc3)o2)cc1 [Example 67, dimethyl-(3-{4-[5-(2-phenoxy-ethylsulfanylmethyl)-[1,3,4]oxadiazol-2-yl]-phenoxy}-propyl)-amine] |
| 69 to 73 °C | CN(C)CCCOc1ccc(-c2nnc(CSCCCCOc3ccccc3)o2)cc1 [Example 50, dimethyl-(3-{4-[5-(4-phenoxybutylsulfanylmethyl)-[1,3,4]oxadiazol-2-yl]-phenoxy}-propyl)-amine] |
| 65 °C | c1ccc(OCCSCc2nnc(-c3ccc(OCCCN4CCCCC4)cc3)o2)cc1 [Example 75, 1-(3-{4-[5-(2-phenoxy-ethylsulfanylmethyl)-[1,3,4]oxadiazol-2-yl]-phenoxy}-propyl)-piperidine] |
| 146 to 147 °C | CN1CCN(c2ccc(-c3nnc(CSCCOc4ccccc4)o3)cn2)CC1.O=C(O)/C=C\C(=O)O [Example 293, 1-methyl-4-{5-[5-(2-phenoxy-ethylsulfanylmethyl)-[1,3,4]oxadiazol-2-yl]-pyridin-2-yl}-piperazine; maleic acid salt] |
| 156 to 158 °C | CN(C)CCCOc1ccc(-c2nnc(Cc3ccc(Oc4ccccc4)cc3)o2)cc1.O=C(O)C(=O)O [Example 269, Dimethyl-(3-{4-[5-(4-phenoxy-benzyl)-[1,3,4]oxadiazol-2-yl]-phenoxy}-propyl)-amine, oxalic acid salt] |
| 84 to 87 °C | O=C(NCCN1CCCCC1)Nc1ccc(-c2cnc(CSCCOc3ccccc3)o2)cc1 [Example 252] |
| 86 to 93 °C | CN(C)CCCCCCNC(=O)c1ccc(-c2nnc(CSCCOc3ccccc3)o2)cc1 [Example 57, N-(6-dimethylaminohexyl)-4-[5-(2-phenoxyethylsulfanylmethyl)-[1,3,4]oxadiazol-2-yl]-benzamide] |
| 46 to 50 °C | CN1CCCC1CCOc1ccc(-c2nnc(CSCCOc3ccccc3)o2)cc1 (stereo not shown) [Example 96, 2-{4-[2-(1-methyl-pyrrolidin-2-yl)-ethoxy]-phenyl}-5-(2-phenoxy-ethylsulfanylmethyl)-[1,3,4]oxadiazole] |
| 131 to 133 °C | CN(C)CCCOc1ccc(-c2nnc(CSCCCOc3ccccc3)o2)cc1.O=C(O)C(=O)O [Example 49, dimethyl-(3-{4-[5-(3-phenoxypropylsulfanylmethyl)-[1,3,4]oxadiazol-2-yl]-phenoxy}-propyl)-amine, oxalic acid salt] |
| 40 °C | c1ccc(OCCSCc2nnc(-c3ccc(OCCN4CCCCCC4)cc3)o2)cc1 [Example 86, 1-(2-{4-[5-(2-phenoxy-ethylsulfanylmethyl)-[1,3,4]oxadiazol-2-yl]-phenoxy}-ethyl)-azepane] |
| 115 °C | c1ccc(OCCSCc2nnc(-c3ccc(OCc4ccccn4)cc3)o2)cc1 [Example 99, 2-{4-[5-(2-phenoxy-ethylsulfanylmethyl)-[1,3,4]oxadiazol-2-yl]-phenoxymethyl}-pyridine] |
| 155 to 158 °C | CN(C)CCNC(=S)Nc1ccc(-c2nnc(CSCCOc3ccccc3)o2)cc1 [Example 117, 1-(2-dimethylamino-ethyl)-3-{4-[5-(2-phenoxy-ethylsulfanylmethyl)-[1,3,4]oxadiazol-2-yl]-phenyl}-thiourea] |
| 130 to 132 °C | CN(C)CCCOc1ccc(-c2nnc(-c3ccc(-c4ccccc4)cc3)o2)cc1 [Example 58, {3-[4-(5-biphenyl-4-yl-[1,3,4]oxadiazol-2-yl)-phenoxy]-propyl}-dimethylamine] |
| 125 to 129 °C | O=C1N(CCN2CCCC2)CCN1c1ccc(-c2nnc(CSCCOc3ccccc3)o2)cc1 [Example 257, 1-{4-[5-(2-phenoxy-ethylsulfanylmethyl)-[1,3,4]oxadiazol-2-yl]-phenyl}-3-(2-pyrrolidin-1-yl-ethyl)-imidazolidin-2-one] |
| 87 to 93 °C | CN(C)CCCNC(=O)c1ccc(-c2nnc(CSCCCCOc3ccccc3)o2)cc1 [Example 48, N-(3-dimethylaminopropyl)-4-[5-(4-phenoxybutylsulfanylmethyl)-[1,3,4]oxadiazol-2-yl]-benzamide] |
| 38 to 42 °C | CN(C)CCCCNC(=O)c1cccc(-c2nnc(CSCCOc3ccccc3)o2)c1 [Example 61, N-(4-dimethylamino-butyl)-3-[5-(2-phenoxy-ethylsulfanylmethyl)-[1,3,4]oxadiazol-2-yl]-benzamide] |
| 67 to 68 °C | N#CCCCOc1ccc(-c2nnc(CSCCOc3ccccc3)o2)cc1 [Example 264, 4-{4-[5-(2-phenoxy-ethylsulfanylmethyl)-[1,3,4]oxadiazol-2-yl]-phenoxy}-butyronitrile] |
| 62 to 64 °C | CN(C)CCOc1ccc(-c2nnc(CSCCOc3ccccc3)o2)cc1 [Example 66, dimethyl-(2-{4-[5-(2-phenoxy-ethylsulfanylmethyl)-[1,3,4]oxadiazol-2-yl]-phenoxy}-ethyl)-amine] |

| Structure (SMILES) | melting point |
| --- | --- |
| c1ccc(OCCSCc2nnc(-c3ccc(OCCCCN4CCCC4)cc3)o2)cc1 [Example 80, 2-(2-phenoxy-ethylsulfanylmethyl)-5-[4-(4-pyrrolidin-1-yl-butoxy)-phenyl]-[1,3,4]oxadiazole] | 45 °C |
